The results in this text go back to patent US20100173835A1, “Peptides for Treatment of Obesity” (Novo Nordisk A/S, priority 2008, published 2010).

In brackets after ≈: the same amount, converted by molar mass. Read-outs that look alike come from different tables or passages of the source. Where a SMILES comes first, the peptide text is derived from it. Bridges are numbered along the chain shown (N, C = ends). [ ]: non-standard residue; d: D form. The star is where a group is joined. Palmitoyl(16-(5-tetrazolyl)) = O=C(CCCCCCCCCCCCCCCc1nnn[nH]1)*; Lys(CH2CO2H)2 = N[C@@H](CCCCN(CC(=O)O)CC(=O)O)C(=O)O; Hyp = O=C(O)[C@@H]1C[C@@H](O)CN1; Nle = CCCC[C@H](N)C(=O)O; AEEA = NCCOCCOCC(=O)O; βAla = NCCC(=O)O Some results are limits rather than exact numbers.

In data set [1] the target is T1, human MC4 receptor (Homo sapiens, UniProt P32245).
T1 construct: expressed in transfected cells
T1 sequence (P32245 whole entry): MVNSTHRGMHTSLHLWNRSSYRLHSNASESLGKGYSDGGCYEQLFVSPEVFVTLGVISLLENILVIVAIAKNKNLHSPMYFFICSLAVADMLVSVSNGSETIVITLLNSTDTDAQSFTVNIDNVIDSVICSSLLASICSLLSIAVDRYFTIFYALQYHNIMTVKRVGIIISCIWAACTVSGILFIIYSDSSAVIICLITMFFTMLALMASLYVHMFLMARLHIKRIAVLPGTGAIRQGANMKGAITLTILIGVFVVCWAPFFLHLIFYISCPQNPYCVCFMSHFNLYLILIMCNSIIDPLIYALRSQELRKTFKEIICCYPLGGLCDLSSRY
The data set can be described thus: Assay (V) Melanocortin Receptor 4 (MC4) binding assay. As to conditions: Assay (V) MC4 [Ki] (nM), 125NDP-α-MSH binding, BHK cell membranes. The method in brief: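 BHK membranes stably expressing human MC4 receptor were incubated with ^125NDP-α-MSH (≈79 pM final) and compound for 2 h at 25 °C, pH 7.0 HEPES buffer with HSA or ovalbumin. Filter-bound radioactivity was gamma counted. Binding curves were fitted by non-linear regression.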

Data set [2] concerns the target T2, MC1 receptor (Homo sapiens, UniProt Q01726).
T2 construct: expressed in transfected cells
The data set can be described thus: Assay (IV) Melanocortin Receptor 1 (MC1) binding assay. The method, boiled down: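 Competition binding used BHK cell membranes stably expressing MC1 (25 μg/ml) with 22 pM final ^125NDP-α-MSH in 25 mM HEPES pH 7.4, CaCl2, MgSO4, EDTA, 0.1% HSA (or ovalbumin), 0.005% Tween 20. After 90 min at 30° C., bound radioligand was filtered and counted, with binding curves fitted by non-linear regression.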

Data set [3] concerns ad libitum fed rat model. The data set can be described thus: Assay (I) efficacy testing on appetite, ad libitum fed rat model. The data set is classed as in vivo. The settings on record: dosing 1 mg/kg. As for the experimental part: Assay (I)—Experimental protocol for efficacy testing on appetite with MC4 analogues, using an ad libitum fed rat model. TAC:SPRD @mol rats or Wistar rats from M&B Breeding and Research Centre A/S, Denmark are used for the experiments. The rats have a body weight 200-250 g at the start of experiment. The rats arrive at least 10-14 days before start of experiment with a body weight of 180-200 g. Each dose of compound is tested in a group of 8 rats. […] When the animals arrive they are housed individually in a reversed light/dark phase (lights off 7:30 am, lights on 7:30 pm), meaning that lights are off during daytime and on during nighttime. […] During this period the animals are handled at least 3 times. The experiment is conducted in the rats' home cages. Immediately before dosing the rats are randomised to the various treatment groups (n 8) by body weight. They are dosed according to body weight at between 7:00 am and 7:45 am, with a 1-3 mg/kg solution administered intraperitoneally (ip), orally (po) or subcutaneously (sc). The time of dosing is recorded for each group. After dosing, the rats are returned to their home cages, where they then have access to food and water. […] At the end of the experimental session, the animals are euthanised. The individual data are recorded in Microsoft excel sheets. Outliers are excluded after applying the Grubbs statistical evaluation test for outliers, and the result is presented graphically using the GraphPad Prism program.

The nature of data set [4]: Solubility data of compounds in water over the pH range. The settings on record: read-out: Conc (solubility in water). The data set is classed as physicochemical.

What is called Ki is a dissociation constant, usually derived from enzyme kinetics or from competition with a known ligand. As a reminder, the solubility is the dissolved amount per volume that the medium holds.

T2 sequence (Q01726 whole entry): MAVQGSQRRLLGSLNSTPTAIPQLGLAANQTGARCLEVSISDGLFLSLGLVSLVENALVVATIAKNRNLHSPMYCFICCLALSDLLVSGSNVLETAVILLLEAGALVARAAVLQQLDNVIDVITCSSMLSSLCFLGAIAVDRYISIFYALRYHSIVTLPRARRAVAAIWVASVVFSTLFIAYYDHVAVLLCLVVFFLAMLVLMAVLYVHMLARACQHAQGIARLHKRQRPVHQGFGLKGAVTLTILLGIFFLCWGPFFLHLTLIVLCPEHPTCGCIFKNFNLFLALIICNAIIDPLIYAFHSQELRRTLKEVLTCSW

On to `CCCC[C@H](NC(=O)[C@H](CCCCN(CC(=O)O)CC(=O)O)NC(=O)[C@H](CO)NC(=O)[C@H](CCC(N)=O)NC(=O)[C@H](CO)NC(=O)CNC(=O)COCCOCCNC(=O)CCCCCCCCCCCCCCCc1nnn[nH]1)C(=O)N[C@H]1CCC(=O)NCCCC[C@@H](C(N)=O)NC(=O)[C@H](Cc2c[nH]c3ccccc23)NC(=O)[C@H](CCCNC(=N)N)NC(=O)[C@@H](Cc2ccccc2)NC(=O)[C@@H]2C[C@@H](O)CN2C1=O` [Example 5, (2-{2-[16-(Tetrazol-5-yl)hexadecanoylamino]ethoxy}ethoxy)acetyl-Gly-Ser-Gln-Ser-Lys(biscarboxymethyl)-Nle-c[Glu-Hyp-D-Phe-Arg-Trp-Lys]-NH2] ({Palmitoyl(16-(5-tetrazolyl))-AEEA}-GSQS[Lys(CH2CO2H)2][Nle]E[Hyp][dF]RWK-NH2; lactam 7-12), for which the figures for the Ki in data set [1] and in data set [2] were 7.55 nM and > 10000 nM, respectively. Further, the “Food consumption (% of vehicle) 24 h” value in data set [3] is given as 81 % of vehicle. The “Food consumption (% of vehicle) 48 h” value in data set [3] is listed as 91 % of vehicle. The solubility at 3 days in data set [4] (pH 4.22, pH 4.22) was 20 µM (≈ 40.5 µg/mL); in data set [4] (pH 4.55, pH 4.55), 21 µM (≈ 42.6 µg/mL); in data set [4] (pH 5.1, pH 5.10), 25 µM (≈ 50.7 µg/mL); in data set [4] (pH 5.23, pH 5.23), 30 µM (≈ 60.8 µg/mL); in data set [4] (pH 5.97, pH 5.97), 129 µM (≈ 262 µg/mL); in data set [4] (pH 6.29, pH 6.29) it was 239 µM (≈ 485 µg/mL). Also, the solubility at 3 days in data set [4] (pH 6.68, pH 6.68) stood at 244 µM (≈ 495 µg/mL); in data set [4] (pH 7.03, pH 7.03) it was 245 µM (≈ 497 µg/mL); in data set [4] (pH 7.04, pH 7.04), 251 µM (≈ 509 µg/mL).
For `CCCC[C@H](NC(=O)[C@H](CCCCN(CC(=O)O)CC(=O)O)NC(=O)CCNC(=O)[C@H](Cc1c[nH]cn1)NC(=O)[C@H](CCC(N)=O)NC(=O)[C@H](CO)NC(=O)[C@H](CO)NC(=O)[C@H](CCC(N)=O)NC(=O)[C@@H](CO)NC(=O)CNC(=O)COCCOCCNC(=O)COCCOCCNC(=O)CCCCCCCCCCCCCCCc1nnn[nH]1)C(=O)N[C@H]1CCC(=O)NCCCC[C@@H](C(N)=O)NC(=O)[C@H](Cc2c[nH]c3ccccc23)NC(=O)[C@H](CCCNC(=N)N)NC(=O)[C@@H](Cc2ccccc2)NC(=O)[C@@H]2C[C@@H](O)CN2C1=O` [Example 20, (2-{2-[2-(2-{2-[16-(Tetrazol-5-yl)hexadecanoylamino]ethoxy}ethoxy)acetylamino]ethoxy}ethoxy)acetyl-Gly-D-Ser-Gln-Ser-Ser-Gln-His-β-Ala-Lys(biscarboxymethyl)-Nle-c[Glu-Hyp-D-Phe-Arg-Trp-Lys]-NH2] ({Palmitoyl(16-(5-tetrazolyl))-AEEA-AEEA}-G[dS]QSSQH[βAla][Lys(CH2CO2H)2][Nle]E[Hyp][dF]RWK-NH2; lactam 11-16), the Ki in data set [1] was 4.55 nM; in data set [2], > 10000 nM. For the same compound, the “Food consumption (% of vehicle) 24 h” value in data set [3] (1 mg/kg) is reported as 61 % of vehicle. Besides, the “Food consumption (% of vehicle) 48 h” value in data set [3] (1 mg/kg) was 72 % of vehicle. In addition, the solubility at 3 days in data set [4] (pH 2.94, pH 2.94) was determined as 499 µM (≈ 1300 µg/mL); in data set [4] (pH 4.37, pH 4.37), 512 µM (≈ 1330 µg/mL); in data set [4] (pH 4.97, pH 4.97), 406 µM (≈ 1050 µg/mL); in data set [4] (pH 5.4, pH 5.40), 67 µM (≈ 174 µg/mL); in data set [4] (pH 5.51, pH 5.51), 56 µM (≈ 145 µg/mL); in data set [4] (pH 6.23, pH 6.23) it was 53 µM (≈ 138 µg/mL). In addition, the solubility at 3 days amounted to 223 µM (≈ 579 µg/mL) in data set [4] (pH 6.91, pH 6.91); 345 µM (≈ 896 µg/mL) in data set [4] (pH 6.99); 473 µM (≈ 1230 µg/mL) in data set [4] (pH 7.23, pH 7.23); 452 µM (≈ 1170 µg/mL) in data set [4] (pH 7.55, pH 7.55).
